Experimental data reported in patent publication US20100330602A1, “Use of Soluble Galectin-3 (Gal-3) for Cancer Treatment” (Emory University, priority 2006, published 2010).
Peptide text beside a SMILES is read from it. * marks the point of attachment. Cbz = O=C(OCc1ccccc1)*; CH2F = FC*

Tests used:
[1] = system: Gal-3 secretion in SF767 cells; assay: Western blot for secreted Gal-3 in SF767 glioma cells; assay type: cell-based, human; details: SF767, VP16 alone
Procedure: FIG. 2E. […] This effect is inhibited by p53 siRNA (lanes 5,6) but not control siRNA (lanes 3,4).
FIG. 23. […] This effect is inhibited by siRNAs for TSAP6 (lane 2), p53 (lane 3) and Fas (lane 4), but not control siRNA (lane 1).
Immunoblots were performed on cell lysates (lysed in 8 M urea, 4% SDS, in 10 mM Tris (pH 7.4)), from indicated cells. The conditioned media was precipitated by 15% TCA precipitation for 2 h at 4° C., washed twice with ice-cold acetone, and then resuspended in lysis buffer (8M urea, 4% SDS, 100 mM protease inhibitor cocktail (Roche, Germany)). Electrophoresis and blotting was performed using the Criterion system (BioRad; CA, USA) on. TCA precipitated proteins. Western blots were probed with antibodies for p53 (M7001-clone DO-7; DAKO; 1:500), p21 (MS-891-P1; Neomarkers, CA, USA; 1:250), Gal-3 (ab14364; Santa Cruz, Calif., USA; 1:500), HA (Roche; Germany, 1:500), caspase-3 (1:5000), α-TSP1 (MS-421-P1-Ab-4; NeoMarkers; CA, USA; 1:1000), and PARP (556494; BD Biosciences; CA, USA, 1:1000). Actin was used as a loading control (sc-1615, Santa Cruz Biotechnology; CA; 1:500). Blots were visualized by enhanced chemiluminescence (Pierce, IL, USA). For apoptosis analysis, cells were treated with either media containing secreted Gal-3 or with both secreted Gal-3 and 50 μm Z-VAD-FMK general caspase inhibitor (BD Biosciences; CA, USA). […]

SF767 cells = assay: Cell death in SF767 cells in response to VP16; assay type: cell-based, human; details: VP16 alone or with control siRNA
Source text: The levels of cell death in SF767 cells in response to VP16 treatment in the presence of either p53 or TSAP-6 specific siRNAs as well as in the presence of anti-Gal-3 antibody were further determined. […] This effect was inhibited in the presence of specific siRNAs for p53 (FIGS. 2E and H) or TSAP-6 as well as in the presence of anti-Gal-3 antibody. The inhibition mediated by TSAP6 siRNA was not complete, likely reflecting the incomplete TSAP6 inhibition by this siRNA (FIG. 2E).

[2] = system: four different human glioma cell lines; assay: Recombinant Gal-3 added to culture medium, cell number; assay type: cell-based
Procedure: FIG. 6D. Purified recombinant human Gal-3 (Research Diagnostics Inc.) induces cytotoxicity in four glioma cell lines in a dose-response fashion (0, 5, 12.5, 25, 50, 100, 150 ng/ml) within 48 hrs.
A comparison of rGal3 with naturally secreted Gal3 evidences post-translational modifications in the naturally secreted one (data not shown).

[3] = system: Caspase-3 and PARP cleavage in LN229 cells; assay: Western blot for caspase-3 and PARP cleavage after sGal-3 treatment; assay type: cell-based, human
Procedure: (§1) FIG. 4: Secreted Gal-3 induces apoptosis in tumor cells. FIG. 4A. Bright field pictures and quantification of LN229 glioma cells after 12 h treatment with either secreted Gal-3 alone or in combination with 50 μM Z-VAD general caspase inhibitor. Note inhibition of sGal-3-mediated cell death when cells are co-treated with Z-VAD. Results were quantified by crystal violet assay and experiments repeated three times in triplicate. Similar results were obtained with LN-Z308 cells (data not shown). FIG. 4B.
(§2) Immunoblots were performed on cell lysates (lysed in 8 M urea, 4% SDS, in 10 mM Tris (pH 7.4)), from indicated cells. The conditioned media was precipitated by 15% TCA precipitation for 2 h at 4° C., washed twice with ice-cold acetone, and then resuspended in lysis buffer (8M urea, 4% SDS, 100 mM protease inhibitor cocktail (Roche, Germany)). Electrophoresis and blotting was performed using the Criterion system (BioRad; CA, USA) on. TCA precipitated proteins. […]
(§3) LN229 and LN-Z308 glioma cells were treated with either extracellular Gal-3 alone, or in combination with the Z-VAD general caspase inhibitor and analyzed the cells for apoptotic features.

[4] = system: LN229 and LN-Z308 glioma cells; assay: Apoptotic features after sGal-3 treatment with or without Z-VAD; assay type: cell-based, human
Procedure: as §1, §2, §3

[5] = system: tumors of sGal-3 expressing tet-inducible clones #12 and #21; assay: In vivo mouse tumorigenicity assay (subcutaneous xenograft); parameters: species or system athymic nude mice
Procedure: FIG. 7C. sGal-3 inhibits tumor growth. Six-week old female athymic nude mice (NCI) were injected subcutaneously with 5×10^6 cells of clone #12 and divided into two groups (n=8). Similar results were obtained with clone #21. One group was left untreated while the second group was given 2 mg/ml Dox in drinking water containing 5% sucrose to induce expression of sGal-3 one week after tumor cell implantation until termination of the experiment. The length (a) and width (b) of the tumors were measured weekly and tumor volume was calculated in mm^3=(a×b^2)/2.
Six-week old female athymic nude mice (NCI) (n=8/group) were injected subcutaneously with 5×10^6 cells of the indicated cell lines. 2 mg/ml Dox was delivered orally in drinking water containing 5% sucrose to induce expression and secretion of Gal-3 one week post injection of tumor cells until termination of the experiment. The length (a) and width (b) of the tumors were measured weekly and tumor volume was calculated in mm^3=(a×b^2)/2.
To test directly the effect of sGal-3 on tumor growth in vivo, a nu/nu mouse xenograft model system was used. Cells (5×10^6) from the sGal-3 expressing tet-inducible clones #12 and #21 were injected subcutaneously in the mice and sGal-3 expression was induced one week post tumor cell implantation in half of the injected mice by feeding dox in the drinking water for 12 weeks (9 mice/group). Only 4 of the 18 tumors (clone #12) in the sGal-3 expressing group developed while 14/18 tumors grew in the control group. […] Immunohistochemistry for Gal-3 expression in excised tumors from mice treated with doxycycline confirmed that Gal-3 was expressed (FIG. 7D).

[6] = system: H1289 lung cancer cell line; assay: Crystal violet assay, CM of sGal-3 transfected 293 cells; assay type: cell-based
Procedure: (§4) 293 cells were transfected using GenePORTER reagent (Gene Therapy Systems; CA, USA) with the pUMVC7-sGal-3 plasmid and switched over to serum free media 16 h later. The CM was collected after 48 h, floating cells removed through centrifugation at 1000 g, and filtrated through a 0.8 μm filter (Corning; NY, USA). Cells were plated at 5,000 cells per well in 24-well plates and treated with serial dilutions of CM from either pCMV-LacZ or pUMVC7-sGal-3 transfected 293 cells. Relative cell number compared to serum free media control was quantified in triplicate 24 h and 48 h post treatment using either an MTT kit (Roche; IN, USA) or by crystal violet assay by acquiring absorbance at 575 nm using a spectrophotometer.
(§5) To examine whether the cytotoxic effect of Gal-3 was limited to glioma or whether it represents a more general anti-cancer property, two breast cancer (MD468 and MCF7), two lung cancer (A549 and H1289) and two prostate cancer (LnCaP and PC3) cell lines were tested using the same assay and found all of them to be sensitive to sGal-3 presence in the medium (FIG. 6B).

[7] = system: PC3 prostate cancer cell line; assay: as above; assay type: cell-based
Procedure: as §4, §5

[8] = system: LnCaP prostate cancer cell line; assay: as above; assay type: cell-based
Procedure: as §4, §5

[9] = system: MCF7 breast cancer cell line; assay: as above; assay type: cell-based
Procedure: as §4, §5

[10] = system: MD468 breast cancer cell line; assay: as above; assay type: cell-based
Procedure: as §4, §5

[11] = system: A549 lung cancer cell line; assay: as above; assay type: cell-based
Procedure: as §4, §5

LN-Z308 glioma cells = assay: as above; assay type: cell-based, human; details: CM of transfected 293 cells as source of sGal-3, after 48 h
Procedure: as §4
(§6) After cleavage of the secretion signal, the sGal-3 amino acid sequence is identical to the endogenous secretion product. It is nevertheless possible that sGal3 will have different post-translational modifications that may vary between the exosome-mediated secretory pathway and the classical secretion pathway. To verify the functionality of the construct, the construct was transfected in 293-CLH cells where it mediated a robust increase in the expression and secretion of Gal-3 without intracellular accumulation (FIG. 6A). Using the CM of transfected 293 cells as a source of sGal-3, its effect on the growth of SF767, LN-Z308 and LN229 glioma cells was determined using a crystal violet assay. […] Cells incubated with serum free medium or CM from 293 cells transfected with control pCMV-lacZ plasmid were unaffected (FIG. 6B).

SF767 glioma cells = assay: as above; assay type: cell-based, human; details: CM of transfected 293 cells as source of sGal-3, after 48 h
Procedure: as §4, §6

LN229 glioma cells = assay: as above; assay type: cell-based, human; details: CM of transfected 293 cells as source of sGal-3, after 48 h
Procedure: as §4, §6

[12] = system: human foreskin fibroblasts (HFF); assay: Crystal violet assay, CM of sGal-3 transfected 293 cells, normal cells; assay type: cell-based
Procedure: as §4, §5

[13] = system: human dermal microvascular endothelial cells (HDMEC); assay: as above; assay type: cell-based
Procedure: as §4, §5

[14] = system: LN229-L16-derived dox-inducible sGal-3 clones; assay: Dox-induced sGal-3 expression in cell culture; assay type: cell-based, human; details: within 3-5 days in cell culture
Procedure: Five μg of the plasmid DNA and 5 μl of GenePORTER reagent (Gene Therapy Systems; San Diego, Calif.) were used for each transfection. One μg of pcDNA3.1 containing the geneticin (G418)-resistance cassette was co-transfected at a […], when generating stable clones. Tetracycline-inducible sGal-3 transfected clones were generated in L16 glioma cells (Tet-on clone derived from LN229) by selecting for G418 resistance (1,200 μg/ml). The individual clones were assessed for expression of sGal-3 after 48 h dox induction by western blot analysis. For TSAP6 siRNA, HEK293 cells were transfected with either pcDNA3.1 vectors containing TSAP6 and Galectin-3 alone or in combination with […] or TSAP6 (pHYDE) siRNA (Santa Cruz, Calif., USA) using GenePORTER reagent (Gene Therapy Systems; CA, USA). Cells were allowed to recover overnight in 10% FBS containing DMEM before switching them to serum free media. Cells and CM were collected after 24 hours in serum free media.
To test this concept, dox-inducible sGal-3 clones were generated with variable expression levels in LN229-L16 cells (rtTA expressing) (see materials and methods) (FIG. 7A).

## COc1cc([C@@H]2c3cc4c(cc3[C@@H](O[C@@H]3O[C@@H]5CO[C@@H](C)O[C@H]5[C@H](O)[C@H]3O)[C@H]3COC(=O)[C@H]23)OCO4)cc(OC)c1O [Etoposide, etoposide]
[1]
  secretion of Gal-3 in the media: enhanced secretion of Gal-3
SF767 cells
  levels of cell death: marked levels of apoptosis

## rGal-3: Purified recombinant human Gal-3 (Research Diagnostics Inc.)
[2]
  potency compared with naturally secreted Gal-3: less than that found naturally secreted by human cells
[2]; increasing amounts (0, 5, 12.5, 25, 50, 100, 150 ng/ml) over 48 h
  cell number: dose-dependent decrease in cell number

## COC(=O)C[C@H](NC(=O)[C@H](C)NC(=O)[C@@H](NC(=O)OCc1ccccc1)C(C)C)C(=O)CF [Z-VAD, Z-VAD-FMK, reference compound] (Cbz-Val-Ala-Asp(OMe)-CH2F)
[3]; co-treatment with 50 μM Z-VAD
  effect on sGal-3-induced Caspase-3 and PARP cleavage: neutralized
[4]; co-treatment with 50 μM Z-VAD
  effect on sGal-3-mediated cell death: inhibited

## sGal-3: constitutively secreted soluble Gal-3; Gal-3 cDNA fused to classical secretion signal peptide from the plasminogen activator gene, produced in 293 cells
[5]; clone #12, p<0.02
  average tumor volume at termination versus controls: over six-fold smaller
[5]; clone #12, sGal-3 induced by dox in drinking water for 12 weeks, control 14/18
  tumors developed: 4 of the 18
[5]; clone #21, on average
  tumor size at termination, fold smaller than control group: 4 fold
[5]; clone #21, sGal-3 expression, control 16/18
  tumors grew: 6 of 18
[3]; within 12 h of sGal-3 treatment
  Caspase-3 and PARP cleavage: Caspase-3 and PARP cleavage
[6]
  sensitivity to sGal-3 presence in the medium: sensitive
[7]
  sensitivity to sGal-3 presence in the medium: sensitive
[8]
  sensitivity to sGal-3 presence in the medium: sensitive
[9]
  sensitivity to sGal-3 presence in the medium: sensitive
[10]
  sensitivity to sGal-3 presence in the medium: sensitive
[11]
  sensitivity to sGal-3 presence in the medium: sensitive
LN-Z308 glioma cells
  decrease in cell number: greater than 75%
SF767 glioma cells
  decrease in cell number: greater than 75%
LN229 glioma cells
  decrease in cell number: greater than 75%
[12]
  viability in response to secreted Gal-3 in the media: did not show decreased viability
[13]
  viability in response to secreted Gal-3 in the media: did not show decreased viability
[14]
  cell death upon induction of sGal-3: cell death in all three clones
[4]; sGal-3 alone, as early as 12 h post treatment
  apoptotic features: membrane blebbing, and cell death
